From ChEMBL document CHEMBL4219077, “Methyllucidone inhibits STAT3 activity by regulating the expression of the protein tyrosine phosphatase MEG2 in DU145 prostate carcinoma cells” (Bioorg Med Chem Lett, 2018)
Activity calls are given as the source filed them. The calls are words filed in the database; no cut-off is given here.

Experiments:
[1] = biological target: Protein farnesyltransferase (Homo sapiens, UniProt P49354+P49356); test: Inhibition of FPTase (unknown origin); type: protein-complex assay
[2] = biological target: T1, PTPN9/STAT3 (Homo sapiens) (UniProt P40763+P43378); test: Modulation of MEG2 in human HCT116 cells harboring pSTAT3 (unknown origin)-TA-Luc assessed as inhibition of STAT3 transcriptional activity after 24 hrs by luciferase reporter gene assay; type: cell-based
[3] = biological target: T1, PTPN9/STAT3 (Homo sapiens); test: Modulation of MEG2 in human DU145 cells assessed as inhibition of STAT3 phosphorylation at Tyr-705 residue at 20 uM after 24 hrs by Western blot method; type: cell-based
DU-145 [4] = test: Effect on total STAT3 protein expression in human DU145 cells up to 20 uM after 24 hrs by Western blot method; type: ADME, cell-based; conditions: du-145, 24 h
[5] = biological target: T2, Signal transducer and activator of transcription 1-alpha/beta (Homo sapiens) (UniProt P42224); test: Inhibition of STAT1 phosphorylation in human DU145 cells after 24 hrs by Western blot method; type: cell-based
T2 sequence (whole entry): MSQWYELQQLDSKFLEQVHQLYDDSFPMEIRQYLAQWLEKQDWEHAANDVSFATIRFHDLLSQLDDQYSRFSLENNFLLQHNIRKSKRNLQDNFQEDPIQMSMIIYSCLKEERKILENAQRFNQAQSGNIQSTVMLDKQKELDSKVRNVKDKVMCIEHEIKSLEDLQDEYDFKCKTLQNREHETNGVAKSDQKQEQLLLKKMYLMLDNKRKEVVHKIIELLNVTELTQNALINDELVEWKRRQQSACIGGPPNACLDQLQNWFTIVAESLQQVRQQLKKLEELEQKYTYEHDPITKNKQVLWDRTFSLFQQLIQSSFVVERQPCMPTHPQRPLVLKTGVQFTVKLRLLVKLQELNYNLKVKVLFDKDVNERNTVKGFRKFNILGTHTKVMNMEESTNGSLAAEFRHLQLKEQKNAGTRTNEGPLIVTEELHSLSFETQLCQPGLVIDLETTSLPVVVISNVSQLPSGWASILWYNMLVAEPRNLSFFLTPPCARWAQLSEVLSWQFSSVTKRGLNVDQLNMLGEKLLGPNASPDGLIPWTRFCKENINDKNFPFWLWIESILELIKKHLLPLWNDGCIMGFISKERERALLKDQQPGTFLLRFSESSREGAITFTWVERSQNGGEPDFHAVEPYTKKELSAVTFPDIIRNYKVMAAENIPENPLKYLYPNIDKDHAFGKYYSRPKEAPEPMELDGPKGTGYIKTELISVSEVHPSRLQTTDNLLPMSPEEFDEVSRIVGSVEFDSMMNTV

[6] = biological target: T3, Signal transducer and activator of transcription 5A (Homo sapiens) (UniProt P42229); test: Inhibition of STAT5 phosphorylation in human DU145 cells after 24 hrs by Western blot method; type: cell-based
T3 sequence (whole entry): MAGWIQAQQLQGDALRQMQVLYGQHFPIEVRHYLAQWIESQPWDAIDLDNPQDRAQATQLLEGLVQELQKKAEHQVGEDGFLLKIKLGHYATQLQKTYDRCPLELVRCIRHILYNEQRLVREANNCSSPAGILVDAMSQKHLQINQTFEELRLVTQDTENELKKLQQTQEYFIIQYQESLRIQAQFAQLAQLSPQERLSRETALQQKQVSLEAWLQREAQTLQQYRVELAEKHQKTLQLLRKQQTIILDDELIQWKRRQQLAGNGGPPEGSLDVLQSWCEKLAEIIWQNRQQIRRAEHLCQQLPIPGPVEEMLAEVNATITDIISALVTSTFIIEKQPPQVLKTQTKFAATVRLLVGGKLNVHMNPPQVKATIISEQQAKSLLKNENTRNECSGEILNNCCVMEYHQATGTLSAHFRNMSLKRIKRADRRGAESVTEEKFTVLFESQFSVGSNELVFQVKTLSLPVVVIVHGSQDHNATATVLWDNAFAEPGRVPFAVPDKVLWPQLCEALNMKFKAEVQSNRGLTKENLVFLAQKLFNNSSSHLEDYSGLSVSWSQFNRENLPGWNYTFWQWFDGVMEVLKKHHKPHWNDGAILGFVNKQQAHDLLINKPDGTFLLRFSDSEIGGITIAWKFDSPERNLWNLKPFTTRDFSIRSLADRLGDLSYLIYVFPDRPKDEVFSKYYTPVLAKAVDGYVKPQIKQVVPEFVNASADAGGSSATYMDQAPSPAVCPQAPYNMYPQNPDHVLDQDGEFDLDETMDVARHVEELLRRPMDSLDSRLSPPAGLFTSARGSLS

[7] = biological target: T1, PTPN9/STAT3 (Homo sapiens); test: Modulation of MEG2 in human DU145 cells assessed as inhibition of STAT3 activation by measuring down regulation of Cyclin D1 level at 10 uM after 24 hrs by Western blot method; type: cell-based
[8] = biological target: T1, PTPN9/STAT3 (Homo sapiens); test: Modulation of MEG2 in human DU145 cells assessed as inhibition of STAT3 activation by measuring down regulation of Cyclin A level at 10 uM after 24 hrs by Western blot method; type: cell-based
[9] = biological target: T1, PTPN9/STAT3 (Homo sapiens); test: Modulation of MEG2 in human DU145 cells assessed as inhibition of STAT3 activation by measuring down regulation of survivin level at 10 uM after 24 hrs by Western blot method; type: cell-based
[10] = biological target: T1, PTPN9/STAT3 (Homo sapiens); test: Modulation of MEG2 in human DU145 cells assessed as inhibition of STAT3 activation by measuring down regulation of Mcl1 level at 10 uM after 24 hrs by Western blot method; type: cell-based
[11] = biological target: T1, PTPN9/STAT3 (Homo sapiens); test: Modulation of MEG2 in human DU145 cells assessed as inhibition of STAT3 activation by measuring down regulation of Bcl2 level at 10 uM after 24 hrs by Western blot method; type: cell-based
[12] = biological target: T1, PTPN9/STAT3 (Homo sapiens); test: Modulation of MEG2 in human LNCAP cells assessed as inhibition of IL-6-stimulated STAT3 phosphorylation at 10 uM pretreated for 12 hrs followed by IL-6 stimulation for 30 mins by Western blot method; type: cell-based
DU-145 [13] = test: Antiproliferative activity against human DU145 cells after 48 hrs by WST1 assay; type: functional; conditions: DU-145, 48 h
LNCaP = test: Antiproliferative activity against human LNCAP cells by WST1 assay; type: functional, cell-based
PC-3 = test: Antiproliferative activity against human PC3 cells by WST1 assay; type: functional, cell-based
DU-145 [14] = test: Cell cycle arrest in human DU145 cells assessed as apoptotic cells at 10 uM after 12 hrs by FACS analysis (reference value: 8.1%); type: functional
DU-145 [15] = test: Cell cycle arrest in human DU145 cells assessed as accumulation at G0/G1 phase at 10 uM after 12 hrs by FACS analysis (reference value: 41.1%); type: functional
DU-145 [16] = test: Cell cycle arrest in human DU145 cells assessed as accumulation at S phase at 10 uM after 12 hrs by FACS analysis (reference value: 7.7%); type: functional
DU-145 [17] = test: Cell cycle arrest in human DU145 cells assessed as accumulation at G2/M phase at 10 uM after 12 hrs by FACS analysis (reference value: 24%); type: functional
DU-145 [18] = test: Cell cycle arrest in human DU145 cells assessed as apoptotic cells at 10 uM after 24 hrs by FACS analysis (reference value: 8.1%); type: functional
DU-145 [19] = test: Cell cycle arrest in human DU145 cells assessed as accumulation at G0/G1 phase at 10 uM after 24 hrs by FACS analysis (reference value: 41.1%); type: functional
DU-145 [20] = test: Cell cycle arrest in human DU145 cells assessed as accumulation at S phase at 10 uM after 24 hrs by FACS analysis (reference value: 7.7%); type: functional
DU-145 [21] = test: Cell cycle arrest in human DU145 cells assessed as accumulation at G2/M phase at 10 uM after 24 hrs by FACS analysis (reference value: 24%); type: functional
DU-145 [22] = test: Cell cycle arrest in human DU145 cells assessed as apoptotic cells at 10 uM after 48 hrs by FACS analysis (reference value: 8.1%); type: functional
DU-145 [23] = test: Cell cycle arrest in human DU145 cells assessed as accumulation at G0/G1 phase at 10 uM after 48 hrs by FACS analysis (reference value: 41.1%); type: functional
DU-145 [24] = test: Cell cycle arrest in human DU145 cells assessed as accumulation at S phase at 10 uM after 48 hrs by FACS analysis (reference value: 7.7%); type: functional
DU-145 [25] = test: Cell cycle arrest in human DU145 cells assessed as accumulation at G2/M phase at 10 uM after 48 hrs by FACS analysis (reference value: 24%); type: functional
DU-145 [26] = test: Induction of apoptosis in human DU145 cells assessed as decrease in procaspase-3 level up to 10 uM by Western blot method; type: functional, cell-based
DU-145 [27] = test: Increase in cleaved caspase-3 level in human DU145 cells up to 10 uM after 24 hrs by Western blot method; type: functional, cell-based
[28] = biological target: Janus Kinase (JAK) (Homo sapiens) (UniProt P52333+P23458+O60674+P29597); test: Inhibition of JAK phosphorylation (unknown origin); type: protein assay
[29] = biological target: Proto-oncogene tyrosine-protein kinase Src (Homo sapiens) (UniProt P12931); test: Inhibition of SRC phosphorylation (unknown origin)
[30] = biological target: T1, PTPN9/STAT3 (Homo sapiens); test: Modulation of MEG2 in human DU145 cells assessed as inhibition of STAT3 phosphorylation at Tyr-705 residue at 10 uM after 24 hrs in presence of phosphatase inhibitor Na3VO4 by Western blot method; type: cell-based
[31] = biological target: Signal transducer and activator of transcription 3 (Homo sapiens) (UniProt P40763); test: Inhibition of STAT3 phosphorylation at Tyr-705 residue in human DU145 cells harboring MEG2 siRNA at 10 uM after 12 hrs by Western blot method; type: cell-based
DU-145 [32] = test: Increase in MEG2 protein expression in human DU145 cells at 10 uM by Western blot method; type: functional, cell-based; conditions: TDE = time-dependent effect
[33] = biological target: Signal transducer and activator of transcription 3 (Homo sapiens) (UniProt P40763); test: Inhibition of STAT3 phosphorylation at Tyr-705 residue in human DU145 cells harboring SHP2 siRNA at 10 uM after 12 hrs by Western blot method; type: cell-based

T1 sequence (P40763 2-770 limits assumed): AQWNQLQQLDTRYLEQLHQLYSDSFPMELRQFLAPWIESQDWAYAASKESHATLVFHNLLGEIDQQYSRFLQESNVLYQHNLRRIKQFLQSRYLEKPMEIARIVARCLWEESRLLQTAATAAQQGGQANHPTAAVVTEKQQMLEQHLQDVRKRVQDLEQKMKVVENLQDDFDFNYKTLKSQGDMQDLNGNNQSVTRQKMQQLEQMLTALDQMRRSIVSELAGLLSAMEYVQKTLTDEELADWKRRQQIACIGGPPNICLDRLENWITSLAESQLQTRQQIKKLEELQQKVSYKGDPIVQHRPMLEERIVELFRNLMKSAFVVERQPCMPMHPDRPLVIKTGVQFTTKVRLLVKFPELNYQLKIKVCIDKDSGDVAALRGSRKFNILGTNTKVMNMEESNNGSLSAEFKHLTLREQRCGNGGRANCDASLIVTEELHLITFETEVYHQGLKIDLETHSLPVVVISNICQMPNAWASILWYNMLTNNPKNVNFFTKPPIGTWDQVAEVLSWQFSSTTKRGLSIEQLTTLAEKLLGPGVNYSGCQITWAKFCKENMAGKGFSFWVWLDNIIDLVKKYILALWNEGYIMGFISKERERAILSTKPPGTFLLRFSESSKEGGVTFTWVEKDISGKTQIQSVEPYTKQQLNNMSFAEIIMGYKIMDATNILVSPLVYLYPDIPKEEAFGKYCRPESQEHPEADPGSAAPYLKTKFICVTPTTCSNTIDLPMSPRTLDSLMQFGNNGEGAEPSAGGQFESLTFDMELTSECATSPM
T1 sequence (P43378 whole entry partner): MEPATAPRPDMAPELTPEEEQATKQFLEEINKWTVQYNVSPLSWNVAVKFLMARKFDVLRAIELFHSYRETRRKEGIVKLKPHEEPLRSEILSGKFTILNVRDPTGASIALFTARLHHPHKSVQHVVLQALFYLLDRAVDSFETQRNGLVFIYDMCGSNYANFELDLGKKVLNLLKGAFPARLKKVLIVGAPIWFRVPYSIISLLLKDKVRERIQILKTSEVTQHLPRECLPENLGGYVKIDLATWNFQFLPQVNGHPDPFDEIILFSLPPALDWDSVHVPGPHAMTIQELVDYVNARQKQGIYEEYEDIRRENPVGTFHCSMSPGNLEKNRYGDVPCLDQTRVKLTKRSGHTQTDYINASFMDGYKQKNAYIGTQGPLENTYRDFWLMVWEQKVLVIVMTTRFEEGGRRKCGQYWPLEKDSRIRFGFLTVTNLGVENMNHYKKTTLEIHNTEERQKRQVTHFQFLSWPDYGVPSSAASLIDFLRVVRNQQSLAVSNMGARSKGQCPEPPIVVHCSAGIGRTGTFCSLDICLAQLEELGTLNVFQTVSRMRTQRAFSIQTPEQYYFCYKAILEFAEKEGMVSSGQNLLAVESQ
Sequence of Signal transducer and activator of transcription 3 (Homo sapiens) (P40763 whole entry): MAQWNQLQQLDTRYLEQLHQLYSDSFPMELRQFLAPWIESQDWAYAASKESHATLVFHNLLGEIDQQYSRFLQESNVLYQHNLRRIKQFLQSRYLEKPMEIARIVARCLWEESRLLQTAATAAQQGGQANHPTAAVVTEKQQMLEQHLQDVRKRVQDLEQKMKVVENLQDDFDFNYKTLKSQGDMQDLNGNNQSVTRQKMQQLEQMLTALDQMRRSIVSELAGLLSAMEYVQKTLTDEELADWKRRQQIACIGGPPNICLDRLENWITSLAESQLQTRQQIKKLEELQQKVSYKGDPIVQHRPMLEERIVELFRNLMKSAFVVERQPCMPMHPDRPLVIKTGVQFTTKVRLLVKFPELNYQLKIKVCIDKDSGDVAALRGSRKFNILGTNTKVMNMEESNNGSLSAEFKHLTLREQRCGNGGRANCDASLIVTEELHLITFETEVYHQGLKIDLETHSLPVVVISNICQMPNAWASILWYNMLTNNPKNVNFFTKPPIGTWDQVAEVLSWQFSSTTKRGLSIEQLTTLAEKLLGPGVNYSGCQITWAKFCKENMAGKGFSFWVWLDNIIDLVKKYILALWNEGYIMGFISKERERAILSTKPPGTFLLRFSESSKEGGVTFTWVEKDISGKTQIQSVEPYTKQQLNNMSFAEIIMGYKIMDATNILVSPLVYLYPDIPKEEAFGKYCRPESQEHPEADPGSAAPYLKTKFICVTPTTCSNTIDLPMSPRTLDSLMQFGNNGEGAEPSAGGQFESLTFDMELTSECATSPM
Sequence of Proto-oncogene tyrosine-protein kinase Src (Homo sapiens) (P12931 2-536 limits assumed): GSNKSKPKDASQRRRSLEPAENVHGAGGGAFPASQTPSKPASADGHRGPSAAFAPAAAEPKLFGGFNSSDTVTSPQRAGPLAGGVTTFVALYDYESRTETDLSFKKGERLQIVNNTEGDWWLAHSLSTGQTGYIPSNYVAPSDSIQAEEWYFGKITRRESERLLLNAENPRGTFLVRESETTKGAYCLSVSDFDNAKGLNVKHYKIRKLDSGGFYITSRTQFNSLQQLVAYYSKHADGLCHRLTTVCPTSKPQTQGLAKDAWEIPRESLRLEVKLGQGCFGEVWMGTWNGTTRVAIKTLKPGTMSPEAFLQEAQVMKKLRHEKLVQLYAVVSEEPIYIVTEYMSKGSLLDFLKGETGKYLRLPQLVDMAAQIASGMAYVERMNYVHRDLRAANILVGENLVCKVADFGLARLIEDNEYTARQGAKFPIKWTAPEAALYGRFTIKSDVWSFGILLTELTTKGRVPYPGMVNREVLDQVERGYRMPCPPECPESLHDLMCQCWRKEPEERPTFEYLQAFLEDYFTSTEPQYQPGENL

COC1=CC(=O)/C(=C(\C=C\c2ccccc2)OC)C1=O
IC50 [1]: > 40 µM | inhibition [2]: Dose-dependent effect | inhibition [3]: > 90% | Activity (DU-145 [4]): Non-Toxic | inhibition [5]: inactive | inhibition [6]: inactive | inhibition [7]: Active | inhibition [8]: Active | inhibition [9]: Active | inhibition [10]: Active | inhibition [11]: Active | inhibition [12]: Active | GI50 (DU-145 [13]): 15 µM | Activity (LNCaP): inactive | Activity (PC-3): inactive | Activity (DU-145 [14]): 4.5% | Activity (DU-145 [15]): 43.5% | Activity (DU-145 [16]): 7.8% | Activity (DU-145 [17]): 34% | Activity (DU-145 [18]): 8.5% | Activity (DU-145 [19]): 50.3% | Activity (DU-145 [20]): 4.1% | Activity (DU-145 [21]): 23.6% | Activity (DU-145 [22]): 20.8% | Activity (DU-145 [23]): 36.7% | Activity (DU-145 [24]): 5.6% | Activity (DU-145 [25]): 31.6% | Activity (DU-145 [26]): Active | Activity (DU-145 [27]): inactive | inhibition [28]: inactive | inhibition [29]: inactive | inhibition [30]: inactive | inhibition [31]: inactive | Activity (DU-145 [32]): Tde | inhibition [33]: Active
